Measurements taken from patent publication US6630489B1, “Quinoline derivatives as tyrosine kinase inhibitors” (Astrazeneca AB, priority 1999, dated 2003).

Columns and labels:
[1] = system: human peripheral blood mononuclear cells (T cell proliferation); test: In vitro T cell proliferation assay, Test (b)(ii): non T cell receptor stimulation (PMA and Ionomycin); type: cell-based; details: human PBMC, stimulation with PMA and Ionomycin, tritiated thymidine
Method: (§1) (b) In vitro T Cell Proliferation Assays
(§2) The ability of test compounds to inhibit T cell proliferation was assessed by using human peripheral blood mononuclear cells and stimulation of the T cells by way of the T cell receptor or other than by way of the T cell receptor.
(§3) Peripheral blood mononuclear cells (PBMC) were isolated from heparinised (10 units/ml heparin) human blood by density centrifugation (Lymphoprep™; Nycomed) spinning initially at 2000 rpm at ambient temperature for 20 minutes. Cells at the interphase were transferred to clean tubes, diluted 1:1 with RPMI 1640 medium (Gibco) and spun at 2000 rpm at ambient temperature for 10 minutes. The cell pellet was resuspended in RPMI 1640 medium and spun at 1400 rpm at ambient temperature for 10 minutes. The cell pellet was resuspended in RPMI 1640 medium and spun at 900 rpm at ambient temperature for 10 minutes to remove platelets. […]
(§4) The extent of inhibition of T cell proliferation at a range of concentrations of each test compound was determined and an IC50 value was calculated. […]
Aliquots (50 μl) of a mixture of the cell stimulants PMA (phorbol-12-myristate-13-acetate, Sigma Catalogue No. P8139; 40 ng/ml) and Ionomycin (Sigma Catalogue No. I0684; 1.2 μM) were added to each well and the cells were incubated and analysed as described in paragraph (b)(i).

[2] = system: human peripheral blood mononuclear cells (T cell proliferation); test: In vitro T cell proliferation assay, Test (b)(i): T cell receptor stimulation (anti-CD3 antibody); type: cell-based; details: human PBMC, T cell receptor stimulation with anti-CD3 antibody, tritiated thymidine
Method: as §1, §2
as §3, with “minutes.” for “minutes. The cell pellet was resuspended in RPMI 1640 medium and spun at 900 rpm at ambient temperature for 10 minutes to remove platelets.”
as §4
Aliquots (50 μl) of the T cell receptor stimulatory anti-CD3 antibody (Pharmingen Catalogue No. 30100D; 40 ng/ml in assay medium) were added to each well and the cells were incubated for 24 hours at 37° C. in a humidified (5%CO2/95% air) incubator. […] The cells were harvested onto a filter mat and radioactivity was counted using a Wallac 1450 Microbeta Plus liquid scintillation counter.

p56^lck enzyme = target: T1, p56^lck enzyme (Homo sapiens, UniProt P06239); test: In vitro enzyme assay, Test (a): inhibition of p56lck phosphorylation of a tyrosine-containing polypeptide substrate (Elisa); type: biochemical; details: inhibition of phosphorylation by p56lck
T1 construct: fused on or other part: N-terminal 6-His tag
T1 sequence (P06239 whole entry, the tested form may be a part): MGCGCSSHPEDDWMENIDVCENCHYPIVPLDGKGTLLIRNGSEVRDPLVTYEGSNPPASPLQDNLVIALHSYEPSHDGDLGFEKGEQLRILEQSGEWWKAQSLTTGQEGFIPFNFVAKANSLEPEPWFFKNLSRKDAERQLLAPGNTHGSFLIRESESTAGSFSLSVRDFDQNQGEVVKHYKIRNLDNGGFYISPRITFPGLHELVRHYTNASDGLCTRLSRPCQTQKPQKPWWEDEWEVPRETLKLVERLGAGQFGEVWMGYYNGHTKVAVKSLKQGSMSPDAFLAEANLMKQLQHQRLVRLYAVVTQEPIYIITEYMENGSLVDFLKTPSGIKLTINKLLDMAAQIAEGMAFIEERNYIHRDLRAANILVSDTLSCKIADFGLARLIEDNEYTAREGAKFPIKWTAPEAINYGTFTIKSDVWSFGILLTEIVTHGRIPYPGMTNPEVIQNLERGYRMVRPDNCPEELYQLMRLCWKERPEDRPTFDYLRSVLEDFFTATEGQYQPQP
Method: (a) In vitro Enzyme Assay
The ability of test compounds to inhibit phosphorylation by the enzyme p56^lck of a tyrosine-containing polypeptide substrate was assessed using a conventional Elisa assay.
The following conventional procedure was used to obtain p56^lck enzyme. An EcoR1/Not1 fragment containing the entire coding sequence of p56^lck was generated by the technique of polymerase chain reaction (PCR) from Incyte clone No. 2829606. A 6-His tag was added to the sequence at the N-terminus during the PCR stage. Conventional sequence analysis identified a number of changes compared to the published sequence and these were found also to have been present in the original Incyte template. To achieve expression of the enzyme, the PCR fragment was inserted downstream of the polyhedrin promotor of pFASTBAC1 (Life Technologies Limited, Paisley, UK, Catalogue No. 10360-014). A recombinant Baculovirus was constructed using the Bac-to-Bac system (Life Technologies Limited). High Five insect cells (Invitrogen BV, PO Box 2312, 9704 CH Groningen, The Netherlands, Catalogue No. B855-02) were infected with the recombinant Baculovirus at a multiplicity of infection of 1 and incubated for 48 hours. The cells were harvested. […]

Q: How did the IC50 [1] turn out when `COc1cc2nccc(Oc3ccc(Cl)cc3F)c2cc1C(=O)NCCCN1CCOCC1` [Example 1, 4-(4-chloro-2-fluorophenoxy)-7-methoxy-N-(3-morpholinopropyl)quinoline-6-carboxamide] was run?
A: The IC50 was about 18000 nM.

Q: And the IC50 [2]?
A: Its IC50 is about 700 nM.

Q: What about the IC50 (p56^lck enzyme) of the same compound?
A: Its IC50 is about 30 nM.
